Assay results: US20230265065A1 (WEST VIRGINIA UNIVERSITY BOARD OF GOVERNORS ON BEHALF OF …, priority 2020, published 2023)
“Also recorded” adds a separate entry of the source. One block for each compound: values may come before it.

Tests used:
PTPRδ [1] = biological target: T1, PTPRδ (Homo sapiens, UniProt P23468); assay: PTP panel inhibition, PTPRδ; format: biochemical; parameters: We maintain a library of PTP catalytic domains
T1 sequence (P23468 1357-1612): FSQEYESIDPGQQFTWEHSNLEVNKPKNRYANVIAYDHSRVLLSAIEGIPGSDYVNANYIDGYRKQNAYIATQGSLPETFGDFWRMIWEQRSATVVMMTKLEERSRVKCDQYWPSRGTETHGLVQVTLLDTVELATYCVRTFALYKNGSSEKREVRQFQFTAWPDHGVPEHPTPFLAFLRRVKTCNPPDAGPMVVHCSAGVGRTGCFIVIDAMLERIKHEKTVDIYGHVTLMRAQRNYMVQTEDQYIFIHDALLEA

LAR [2] = biological target: T2, LAR (Homo sapiens, UniProt P10586); assay: Standard phosphatase assay (DiFMUP) with LAR, pH 6.5, 22° C.
T2 sequence (P10586 1352-1607): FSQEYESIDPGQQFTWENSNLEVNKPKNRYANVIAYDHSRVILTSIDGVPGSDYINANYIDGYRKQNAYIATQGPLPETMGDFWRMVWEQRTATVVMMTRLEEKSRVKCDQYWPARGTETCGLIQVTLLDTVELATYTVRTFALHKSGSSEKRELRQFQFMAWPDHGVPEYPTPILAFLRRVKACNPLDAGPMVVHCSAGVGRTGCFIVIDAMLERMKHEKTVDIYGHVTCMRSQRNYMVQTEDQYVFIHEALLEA
Experimental: Enzyme activity assays are performed in black 96-well plates containing a total volume of 100 μL in each well. […] Prior to each assay, the enzyme is activated by incubating in Bis-Tris buffer (50 mM Bis-Tris pH 6.5, 100 mM NaCl, 0.01% Brij 35, 1 mM EDTA) with 5 μL of 100 mM TCEP on ice for 30 min. Buffer, enzyme, and either a DMSO control or the compound of interest are added to each well of the 96-well plate and incubated for 30 min at room temperature. After this 30-min preincubation period, the substrate DiFMUP is added to initiate the reaction. The observed fluorescence resulting from the hydrolysis of DiFMUP is measured every 60 s for 30 min in a SpectraMax M5 plate reader with excitation and emission wavelengths of 350 and 455 nm, respectively.
Assays to investigate time-dependent inhibition are performed as described in the initial inhibitory screen assays section with slight modifications. Buffer and enzyme are initially added to each well, followed by sequential addition of inhibitor starting from the longest incubation time to the shortest.
Assays to determine kobs values were performed as described in the Initial inhibitory screen assays section above with slight modification. Buffer, inhibitor and DMSO were added to each well as appropriate. Enzyme was then added to each well and allowed to incubate for the desired time, followed by addition of DiFMUP to initiate the assay.

PTPRδ [3] = biological target: T1, PTPRδ; assay: Preliminary LAR-PTP inhibition assay at pH 8; format: biochemical; settings: pH 8, 100 μM compound, 30 min preincubation
Experimental: The illudalogs of this invention show inhibitory activity against LAR-PTPs in preliminary assays at pH 6.5 and pH 8 (FIG. 9). In all assays, 100 μM of compound was incubated with enzyme for 30 min prior to the assay. […] This apparent pH-dependence is consistent with the postulated two-stage binding mechanism and will be investigated further. There is some variation in potency and selectivity across the analogues, although these preliminary assays are not precise enough to support quantitative conclusions.

[4] = test system: LAR-PTP subfamily (LAR, PTPRσ, and PTPR^δ); assay: PTP panel screen, LAR-PTP subfamily; format: biochemical, human; settings: panel also with PTP1B, SHP2, and CD45
Experimental: (§1) We screen illudalogs against a panel of PTPs including PTPRD, as illustrated in FIG. 16. […] Typical experimental conditions are 5-10 nM enzyme, 1-10 μM DiFMUP, and 250 nM inhibitor at 37° C.

SHP2 = biological target: T3, SHP2 (Homo sapiens, UniProt Q06124); assay: PTP panel screen, SHP2; format: biochemical; settings: 250 nM
T3 construct: We maintain a library of PTP catalytic domains
T3 sequence (Q06124 247-517): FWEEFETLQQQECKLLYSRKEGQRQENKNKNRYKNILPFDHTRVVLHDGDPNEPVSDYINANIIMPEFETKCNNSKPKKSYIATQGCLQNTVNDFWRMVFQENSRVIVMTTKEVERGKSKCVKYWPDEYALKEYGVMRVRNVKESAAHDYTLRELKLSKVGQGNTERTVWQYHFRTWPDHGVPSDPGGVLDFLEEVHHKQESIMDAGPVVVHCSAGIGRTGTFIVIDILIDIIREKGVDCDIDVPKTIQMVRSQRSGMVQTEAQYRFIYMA
Experimental: as §1

PTPRD [5] = biological target: T4, PTPRD (Homo sapiens, UniProt P23468); assay: PTPRD inhibitor screen and IC50 at pH 7.5 and 37° C.; format: biochemical; settings: 1 μM
T4 construct: We maintain a library of PTP catalytic domains
T4 sequence (P23468 1357-1612): T1 sequence (P23468 1357-1612)

PTPRD [6] = biological target: T4, PTPRD; assay: as above; format: biochemical; settings: for PTPRD inhibition in preliminary screening assays: 1 μM and 250 nM; for IC50: pH 7.5 and 37° C.
CD45 = biological target: T5, CD45 (Homo sapiens, UniProt P08575); assay: PTP panel inhibition, CD45; format: biochemical
T5 construct: We maintain a library of PTP catalytic domains
T5 sequence (P08575 653-912): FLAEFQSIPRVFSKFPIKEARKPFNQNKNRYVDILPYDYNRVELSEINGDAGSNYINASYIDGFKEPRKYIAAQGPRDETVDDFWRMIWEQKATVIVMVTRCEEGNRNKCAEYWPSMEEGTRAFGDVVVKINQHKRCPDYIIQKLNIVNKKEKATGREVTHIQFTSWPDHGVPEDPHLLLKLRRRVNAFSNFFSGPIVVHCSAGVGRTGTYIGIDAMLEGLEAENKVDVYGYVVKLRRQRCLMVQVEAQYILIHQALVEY

LAR [7] = biological target: T2, LAR; assay: Reversibility of LAR inhibition by dialysis; format: biochemical; parameters: We maintain a library of PTP catalytic domains; settings: preliminary experiments
[8] = Storage stability as pure substance or in DMSO; format: physicochemical; settings: room temperature for six months
From the text: As discussed above, our new synthetic approach focuses on convergent benzannulation, followed by conversion to the ortho-formyl hydroxy-lactone pharmacophore (FIG. 1). […] LiAlH4, then 6M HCl, ca. 40-70% yields of IAn compounds, which generally precipitate from aqueous acid as white crystalline solids. Intermediates 5 can be isolated for derivatization prior to acidic hydrolysis or advanced directly to the IAn compounds. Optimization is proposed and in progress. Currently, IA1 is produced in ca. 27% yield over 4 steps from 3. We have prepared >35 g of ester 2; ≥100 mg of IA1 and IA3; and ≥10 mg each of the other illudalog compounds of this invention. […] For IA1, we access β-keto amide 1a in two steps from known enal 3.^61 Other β-keto amides 1 provide parallel access to diverse illudalog cores (e.g., 1b→IA3, FIG. 1, bottom). We prepare β-keto ester 2^62 on multigram-scale using CDI-mediated decarboxylative coupling;^63 we have >35 g of 2 in stock. β-Keto ester 2 is the common building block for illudalogs prepared thus far; it comprises functional precursors to the hydroxy-lactone. The benzannulation is adapted from a known naphthol annulation.^64 The final reduction and hydrolysis sequence can be executed as a one-pot operation or with isolation of intermediate 5. Presumably, the deprotonated phenol directs reduction of the ortho-amide over the para-ester. […]

SMILES: COc1c(C=O)c2c(c3c1CC(C)(C)C3)C(=O)OC(O)C2 (stereo not drawn) [IA1-6OMe]
inhibition of PTPRδ activity (PTPRδ [1]): inhibit
selectivity for LAR compared to other PTPs (LAR [2]; 100 μM inhibitor, pH 6.5, 22 degrees Centigrade): more selective for LAR
inhibitory activity in standard phosphatase assays (LAR [2]; LAR, standard assays): inhibit
initial thermodynamic binding affinity K1 (LAR [2]; LAR, standard assays): too weak
kinetic covalent ligation rate kinact (LAR [2]; LAR, standard assays): too fast
IC50 (LAR [2]; read-out: IC50 (LAR), standard assays, pH 6.5 and 22° C.): 55000 ± 6000 nM
potency and selectivity for PTPR^δ over other LAR-PTPs (PTPRδ [3]): potent and selective for PTPR^δ over LAR and PTPR^δ

SMILES: CC1(C)CCc2c(c(O)c(C=O)c3c2C(=O)OC(O)C3)C1 (stereo not drawn) [IA2-8Me2]
potency and selectivity for the LAR subfamily ([4]; listed as 15): most potent and is selective for the LAR subfamily
inhibition at 0.25 µM (SHP2): > 50%

SMILES: CC1(C)CCc2c(O)c(C=O)c3c(c2C1)C(=O)OC(O)C3 (stereo not drawn) [IA2-9Me2]
potency and selectivity for the LAR subfamily ([4]; listed as 16): different selectivity profile within the LAR subfamily

SMILES: CC1(C)Cc2c(O)c(C=O)c3c(c2C1)C(=O)OC(O)C3 (stereo not drawn) [illudalic acid, reference compound]
inhibition of PTPRδ activity (PTPRδ [1]): inhibit
inhibition of CD45 activity (CD45): inhibited
inhibitory activity in standard phosphatase assays (LAR [2]; LAR, standard assays): active; also recorded: inhibit
recovery of enzyme activity by dialysis (LAR [7]): enzyme activity cannot be recovered by dialysis
stability of NMR sample in DMSO [8]: unchanged
IC50 (PTPRD [6]): 90 ± 14 nM

The next lines start with the values.

PTPRD inhibitory activity on rescreening (PTPRD [5]): lower inhibitory activity
SMILES: CCOc1c(C=O)c2c(c3ccccc13)C(=O)OC(O)C2 (stereo not drawn) [IA3-6OEt]

PTPRD inhibitory activity on rescreening (PTPRD [5]): lower inhibitory activity
SMILES: COc1c(C=O)c2c(c3ccccc13)C(=O)OC(O)C2 (stereo not drawn) [IA3-6OMe]

PTPRD inhibition in preliminary screening assays (PTPRD [6]): potent PTPRD inhibitors
SMILES: O=Cc1c2c(c3ccc(Br)cc3c1O)C(=O)OC(O)C2 (stereo not drawn) [IA3-8Br]

PTPRD inhibition in preliminary screening assays (PTPRD [6]): potent PTPRD inhibitors
SMILES: C#Cc1ccc2c3c(c(C=O)c(O)c2c1)CC(O)OC3=O (stereo not drawn) [IA3-8C2H]

IC50 (PTPRD [6]): 51 ± 5 nM
SMILES: O=Cc1c2c(c3cc(F)c(F)cc3c1O)C(=O)OC(O)C2 (stereo not drawn) [IA3-89F]
